Data reported in patent publication US4311694A, “Amorphous coprecipitates of 4-(monoalkylamino) benzoic acid and derivatives and certain water-soluble materials” (priority 1979, dated 1982).

Experiments:
[1] = Comparative water solubility of precipitates (Example 4); format: physicochemical; details: 1 mg./ml. of drug
physchem = format: physicochemical; details: water, drug alone, read-out: soluble in water

% p-Hexadecylaminobenzoic acid Sodium Salt in Solution, After 1 minute ([1]; 1 minute): 4%
% p-Hexadecylaminobenzoic acid Sodium Salt in Solution, After 30 minutes ([1]; 30 minutes): 2%
solubility (physchem): 1 µg/mL
SMILES: CCCCCCCCCCCCCCCCNc1ccc(C(=O)[O-])cc1.[Na+]
